The results in this text go back to patent publication US20030109501A1, “High throughput assay for N-sulfotransferase activity of glucosaminyl N-deacetylase/N-sulfotransferases” (priority 2001, published 2003).

What all share (type): biochemical
Assay [1] deals with T1, recombinant human sulfotransferase domain of NDST-2 (ST2) (Homo sapiens, UniProt P52849).
T1 construct: subcloning the N-sulfotransferase domain of NDST-2 from the vector pFASTBac-GST-NDST-2; made in house; host or cells: E. coli BL21(DE3)pLysS
T1 sequence (P52849 598-883 limits assumed): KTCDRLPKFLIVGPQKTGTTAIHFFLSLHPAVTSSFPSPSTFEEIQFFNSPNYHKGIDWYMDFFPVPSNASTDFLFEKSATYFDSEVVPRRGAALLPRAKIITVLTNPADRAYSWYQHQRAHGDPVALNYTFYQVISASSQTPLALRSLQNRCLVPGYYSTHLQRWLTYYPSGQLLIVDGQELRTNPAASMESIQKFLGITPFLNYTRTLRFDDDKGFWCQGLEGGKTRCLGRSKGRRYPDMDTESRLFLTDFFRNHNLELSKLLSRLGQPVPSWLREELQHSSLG
Description: Solid phase SPA assay for N-sulfotransferase activity (ST2). Particulars: ST2 2.5 μg/well, room temperature 5 h; for IC50: fully desulfated heparin pre-coated WGA-SPA beads, 35[S]-PAPS 10 nCi/well. On the procedure:
(§1) The assays were conducted at room temperature in Reaction Buffer whose components were described in Example 3. The following components were added into the wells of a 96-well white plate (29444-020, Corning, N.Y.) at a final volume of 100 μl/well.
(§2) 1. 25 μl of the Reaction Buffer.
(§3) 2. 25 μl of desulfated heparin-coated beads (20 mg/ml, 500 μg/well).
(§4) 3. 25 μl of enzyme (ST2, 0.1 mg/ml, 2.5 μg/well or NDST-2, 17.6 μg/ml, 0.44 μg/well) and the plate was incubated on a shaker with slight agitation for 2 min.
(§5) 4. 25 μl of ^35[S]-PAPS (NEG-010, 0.832 mCi/ml, NEN Life Science, Boston, Mass.) (0.4 μCi/ml, 10 nCi/well).
The plate was sealed and incubated for 2-24 h. Radioactivity of the plate was then read in a Packard TopCount microplate scintillation counter (Packard Instrument, Downers Grove, Ill.). The signal-to-noise ratio is the result of counts-per-minute (CPM) in the presence of enzyme divided by counts-per-minute in the absence of enzyme.
A list of 335 compounds was obtained from a search of the Bristol-Myers Squibb inventoried database using the PHASE program and the bound conformation of PAPS taken from the NDST-1 crystal structure [Kakuta, Y. et al. (1999) J. Biol. Chem. 274, 10673-10676]. The PHASE program is an internally developed program for database searches based on ligand molecular shape and pharmacophroic elements. […] Percentage of inhibition was determined by equation; % Inhibition=(1-cpm with compound/cpm without compound)×100. […]
The plate was incubated at room temperature and 5 h. The plate was read in the TopCount scintillation counter. […] The Km of PAPS is determined as a PAPS concentration by using the Michaelis-Menten equation: y=5×10^−5x+5×10^−5.
Compound A (FIGS. 6A and C) and Compound B (FIGS. 6B and D) in DMSO were added into 96-well white plates at the indicated concentrations. […] The plates were read in the TopCount microplate scintillation counter. Percentage of inhibition was determined by the following equation: % Inhibition=(1-cpm with compound/cpm without compound)×100. IC50 was determined by the Microsoft XLfit program.

Assay [2] concerns the target T2, recombinant human NDST-2 (wild-type) (Homo sapiens, UniProt P52849).
T2 construct: the DNA fragment consisting of nucleotides 133-2651 of the human NDST-2 cDNA; made in house; host or cells: DG44 CHO cells (secreted, harvested from supernatant)
T2 sequence (P52849 40-883 limits assumed): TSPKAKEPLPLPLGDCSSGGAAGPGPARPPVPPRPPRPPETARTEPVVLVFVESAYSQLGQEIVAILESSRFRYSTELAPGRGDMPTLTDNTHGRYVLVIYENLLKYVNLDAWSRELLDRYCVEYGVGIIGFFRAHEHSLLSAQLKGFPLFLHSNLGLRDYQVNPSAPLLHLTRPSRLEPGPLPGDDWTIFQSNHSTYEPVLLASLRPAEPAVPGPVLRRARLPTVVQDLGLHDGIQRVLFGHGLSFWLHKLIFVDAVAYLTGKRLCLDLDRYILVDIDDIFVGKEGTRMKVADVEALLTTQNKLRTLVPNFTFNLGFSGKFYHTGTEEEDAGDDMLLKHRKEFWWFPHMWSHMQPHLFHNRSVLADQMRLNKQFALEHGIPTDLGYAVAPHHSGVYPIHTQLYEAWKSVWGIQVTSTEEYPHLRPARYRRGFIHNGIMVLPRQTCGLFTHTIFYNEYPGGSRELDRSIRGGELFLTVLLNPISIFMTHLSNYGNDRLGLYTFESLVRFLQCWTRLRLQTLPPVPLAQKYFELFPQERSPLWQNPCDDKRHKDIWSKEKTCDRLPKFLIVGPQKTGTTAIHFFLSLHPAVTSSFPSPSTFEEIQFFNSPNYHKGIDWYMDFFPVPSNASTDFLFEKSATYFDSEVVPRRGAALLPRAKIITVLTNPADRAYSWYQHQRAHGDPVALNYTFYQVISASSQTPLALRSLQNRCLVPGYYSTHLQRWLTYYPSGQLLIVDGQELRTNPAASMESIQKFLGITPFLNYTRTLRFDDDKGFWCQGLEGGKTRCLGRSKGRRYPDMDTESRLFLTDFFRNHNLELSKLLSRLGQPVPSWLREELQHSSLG
Description: Manual sulfotransferase assay. Particulars: final concentration of 6.25 μM; N-acetyl-de-O-sulfated heparin acceptor, 37° C. for 30 min; read-out: percent inhibition of N-sulfotransferase activity. On the procedure:
The manual sulfotransferase assays were conducted basically as described by Pettersson [Pettersson, I. et al. (1991) J. Biol. Chem. 266, 8044-8049; which is hereby incorporated herein by reference]. The following components were added into Eppendorf vials at a final volume of 200 μl/vial.
1. 119 μl of the Reaction Buffer whose components are described in EXAMPLE 3 herein
2. 1 μl of N-acetyl-de-O-sulfated heparin used as a sulfate acceptor (A6039, Sigma, 25 mg/ml, […]).
3. 20 μl of enzyme NDST-2 (17.6 μg/ml, […]).
4. 50 μl of test compounds (compound-treated reaction, 25 μM, 6.25 μM/vial) or 50 μl of 10% DMSO in reaction buffer (untreated reaction).
5. 10 μl of ^35[S]-PAPS used as a sulfate donor (2 μCi/ml, 100 nCi/vial).
All vials were incubated at 37° C. for 30 min. Reactions were stopped by the addition of 400 μl of 100% ethanol and 35 μl of 3 M sodium acetate into the vials. The samples were placed on dry ice for 5 min and then centrifuged at speed of 14,000 rpm for 5 min. The supernatants were discarded while the pellets were washed twice with 70% ethanol and then dissolved in 100 μl of water. […] Radioactivity was determined in a Beckman model LS 3800 scintillation counter (Beckman Coulter, Fullerton, Calif.). […]

Assay [3] addresses T3, recombinant human wild-type NDST-2 (Homo sapiens, UniProt P52849).
T3 construct: the DNA fragment consisting of nucleotides 133-2651 of the human NDST-2 cDNA; made in house; host or cells: DG44 CHO cells (secreted, harvested from supernatant)
T3 sequence (P52849 40-883 limits assumed): T2 sequence (P52849 40-883 limits assumed)
Nature of the assay: Solid phase SPA assay for N-sulfotransferase activity (wild-type NDST-2). The following applies: wild-type NDST-2 0.4 μg/well, fully desulfated heparin pre-coated WGA-SPA beads, 35[S]-PAPS 10 nCi/well, room temperature 5 h. On the procedure: as §1, §2, §3, §4, §5
The plate was sealed and incubated for 2-24 h. Radioactivity of the plate was then read in a Packard TopCount microplate scintillation counter (Packard Instrument, Downers Grove, Ill.). […]
A list of 335 compounds was obtained from a search of the Bristol-Myers Squibb inventoried database using the PHASE program and the bound conformation of PAPS taken from the NDST-1 crystal structure [Kakuta, Y. et al. (1999) J. Biol. Chem. 274, 10673-10676]. […] Percentage of inhibition was determined by equation; % Inhibition=(1-cpm with compound/cpm without compound)×100. […]
Compound A (FIGS. 6A and C) and Compound B (FIGS. 6B and D) in DMSO were added into 96-well white plates at the indicated concentrations. […] The plates were read in the TopCount microplate scintillation counter. […]

Usually IC50 stands for the concentration that gives 50% inhibition. In general, inhibition refers to the drop in the measured response relative to a control, in per cent. In the case of `CC(C)c1ccc(O)c(CN(CP(=O)(O)O)CP(=O)(O)O)c1` [Compound B], the half-maximal inhibitory concentration (IC50) is about 520 nM in assay [1] and about 2440 nM in assay [3]. Further, in assay [2], the inhibition at 6.25 µM came out at 64.8%.

Broadly, the Km is the substrate concentration at which the rate is half of its maximum. `Nc1ncnc2c1ncn2[C@@H]1O[C@H](COP(=O)(O)OS(=O)(=O)O)[C@@H](OP(=O)(O)O)[C@H]1O` [PAPS, adenosine 3′-phosphate 5′-phosphosulfate, reference compound]: the Km in assay [1] (double-reciprocal plot, read-out: Km of PAPS) was about 1 µM.

Take `O=P(O)(O)CC(Cc1ccc(Cl)cc1)CP(=O)(O)O` [Compound A]: the IC50 in assay [1] was about 399 nM; in assay [3], about 1720 nM. For the same compound, in assay [2], the inhibition at 6.25 µM was 94.7%.
